#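 Grown in 96-well plates, cells were treated for 48 hours with each compound at five concentrations. Insufficient inhibition: endpoint recorded as highest concentration tested. The concentration for 50% growth inhibition is given as GI50. TGI: total growth inhibition.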
# What was measured:
# Assay in all cases: inhibition of tumour cell growth, NCI panel, 48 h
# M14 melanoma = tested on: M14 melanoma
# DU-145 prostate = tested on: DU-145 prostate
# COLO 205 colon = tested on: COLO 205 colon
# MALME-3M melanoma = tested on: MALME-3M melanoma
# HCT-116 colon = tested on: HCT-116 colon
# NCI-H522 lung = tested on: NCI-H522 lung
# SF-539 CNS = tested on: SF-539 CNS
# MDA-MB-231 breast = tested on: MDA-MB-231 breast
# SK-MEL-2 melanoma = tested on: SK-MEL-2 melanoma
# TK-10 renal = tested on: TK-10 renal
# A549 NSCLC = tested on: A549 NSCLC
# MCF7 breast = tested on: MCF7 breast
# HS 578T breast = tested on: HS 578T breast
# A498 renal = tested on: A498 renal
# NCI/ADR-RES ovarian = tested on: NCI/ADR-RES ovarian
# SF-268 CNS = tested on: SF-268 CNS
# PC-3 prostate = tested on: PC-3 prostate
# T-47D breast = tested on: T-47D breast
# MDA-MB-435 = tested on: MDA-MB-435
# SK-MEL-5 melanoma = tested on: SK-MEL-5 melanoma
# HT29 colon = tested on: HT29 colon
# UACC-62 melanoma = tested on: UACC-62 melanoma
# OVCAR-5 ovarian = tested on: OVCAR-5 ovarian
# SW-620 colon = tested on: SW-620 colon
# HCC-2998 colon = tested on: HCC-2998 colon
# ACHN renal = tested on: ACHN renal
# NCI-H460 lung = tested on: NCI-H460 lung
# SN12C renal = tested on: SN12C renal
# RPMI-8226 leukemia = tested on: RPMI-8226 leukemia
# NCI-H23 lung = tested on: NCI-H23 lung
# LOX IMVI melanoma = tested on: LOX IMVI melanoma
# KM12 colon = tested on: KM12 colon
# NCI-H226 lung = tested on: NCI-H226 lung
# HOP-62 NSCLC = tested on: HOP-62 NSCLC
# SNB-75 CNS = tested on: SNB-75 CNS
# SNB-19 CNS = tested on: SNB-19 CNS
# SK-MEL-28 melanoma = tested on: SK-MEL-28 melanoma
# U251 CNS = tested on: U251 CNS
# OVCAR-8 ovarian = tested on: OVCAR-8 ovarian
# OVCAR-4 ovarian = tested on: OVCAR-4 ovarian
# RXF 393 renal = tested on: RXF 393 renal
# EKVX NSCLC = tested on: EKVX NSCLC
# SR leukemia = tested on: SR leukemia
# K-562 leukemia = tested on: K-562 leukemia
# UO-31 renal = tested on: UO-31 renal
# SK-OV-3 ovarian = tested on: SK-OV-3 ovarian
# HL-60(TB) leukemia = tested on: HL-60(TB) leukemia
# HOP-92 NSCLC = tested on: HOP-92 NSCLC
# MOLT-4 leukemia = tested on: MOLT-4 leukemia
# 786-0 renal = tested on: 786-0 renal
# CAKI-1 renal = tested on: CAKI-1 renal
# HCT-15 colon = tested on: HCT-15 colon
# IGROV1 ovarian = tested on: IGROV1 ovarian
# CCRF-CEM leukemia = tested on: CCRF-CEM leukemia
# SF-295 CNS = tested on: SF-295 CNS
# BT-549 breast = tested on: BT-549 breast
# UACC-257 melanoma = tested on: UACC-257 melanoma
# OVCAR-3 ovarian = tested on: OVCAR-3 ovarian
smiles,measurement,setting,value
Cn1ccnc1C(=O)/C=C/c1ccc(CC(=O)Nc2ccc(F)cc2)cc1,GI50,M14 melanoma,3.23 µM
same,TGI,M14 melanoma,7.95 µM
same,GI50,DU-145 prostate,1.24 µM
same,TGI,DU-145 prostate,5.97 µM
same,GI50,COLO 205 colon,4.39 µM
same,TGI,COLO 205 colon,10.3 µM
same,GI50,MALME-3M melanoma,5.28 µM
same,TGI,MALME-3M melanoma,14.9 µM
same,GI50,HCT-116 colon,0.99 µM
same,TGI,HCT-116 colon,3.68 µM
same,GI50,NCI-H522 lung,3.34 µM
same,TGI,NCI-H522 lung,8.41 µM
same,GI50,SF-539 CNS,3.59 µM
same,TGI,SF-539 CNS,7.12 µM
same,GI50,MDA-MB-231 breast,2.96 µM
same,TGI,MDA-MB-231 breast,12.8 µM
same,GI50,SK-MEL-2 melanoma,7.01 µM
same,TGI,SK-MEL-2 melanoma,23.7 µM
same,GI50,TK-10 renal,10.5 µM
same,TGI,TK-10 renal,> 25 µM
same,GI50,A549 NSCLC,6.43 µM
same,TGI,A549 NSCLC,> 25 µM
same,GI50,MCF7 breast,1.04 µM
same,TGI,MCF7 breast,8.59 µM
same,GI50,HS 578T breast,15 µM
same,TGI,HS 578T breast,> 25 µM
same,GI50,A498 renal,5.65 µM
same,TGI,A498 renal,15.3 µM
same,GI50,NCI/ADR-RES ovarian,4.24 µM
same,TGI,NCI/ADR-RES ovarian,> 25 µM
same,GI50,SF-268 CNS,2.89 µM
same,TGI,SF-268 CNS,13.5 µM
same,GI50,PC-3 prostate,1.99 µM
same,TGI,PC-3 prostate,7.96 µM
same,GI50,T-47D breast,8.34 µM
same,TGI,T-47D breast,> 25 µM
same,GI50,MDA-MB-435,4.25 µM
same,TGI,MDA-MB-435,14.9 µM
same,GI50,SK-MEL-5 melanoma,4.45 µM
same,TGI,SK-MEL-5 melanoma,8.09 µM
same,GI50,HT29 colon,2.27 µM
same,TGI,HT29 colon,8.21 µM
same,GI50,UACC-62 melanoma,3.51 µM
same,TGI,UACC-62 melanoma,7.75 µM
same,GI50,OVCAR-5 ovarian,4.36 µM
same,TGI,OVCAR-5 ovarian,10.9 µM
same,GI50,SW-620 colon,1.97 µM
same,TGI,SW-620 colon,12 µM
same,GI50,HCC-2998 colon,3.78 µM
same,TGI,HCC-2998 colon,7.95 µM
same,GI50,ACHN renal,5.74 µM
same,TGI,ACHN renal,> 25 µM
same,GI50,NCI-H460 lung,1.8 µM
same,TGI,NCI-H460 lung,9.89 µM
same,GI50,SN12C renal,1.62 µM
same,TGI,SN12C renal,6.26 µM
same,GI50,RPMI-8226 leukemia,1.02 µM
same,TGI,RPMI-8226 leukemia,5.44 µM
same,GI50,NCI-H23 lung,3.04 µM
same,TGI,NCI-H23 lung,8.56 µM
same,GI50,LOX IMVI melanoma,0.712 µM
same,TGI,LOX IMVI melanoma,3.9 µM
same,GI50,KM12 colon,1.62 µM
same,TGI,KM12 colon,5.52 µM
same,GI50,NCI-H226 lung,8.57 µM
same,TGI,NCI-H226 lung,> 25 µM
same,GI50,HOP-62 NSCLC,4.68 µM
same,TGI,HOP-62 NSCLC,19 µM
same,GI50,SNB-75 CNS,3.74 µM
same,TGI,SNB-75 CNS,> 25 µM
same,GI50,SNB-19 CNS,2.74 µM
same,TGI,SNB-19 CNS,7.02 µM
same,GI50,SK-MEL-28 melanoma,4.47 µM
same,TGI,SK-MEL-28 melanoma,9.95 µM
same,GI50,U251 CNS,1.4 µM
same,TGI,U251 CNS,4.81 µM
same,GI50,OVCAR-8 ovarian,5.71 µM
same,TGI,OVCAR-8 ovarian,> 25 µM
same,GI50,OVCAR-4 ovarian,5.68 µM
same,TGI,OVCAR-4 ovarian,> 25 µM
same,GI50,RXF 393 renal,3.89 µM
same,TGI,RXF 393 renal,7.97 µM
same,GI50,EKVX NSCLC,5.5 µM
same,TGI,EKVX NSCLC,> 25 µM
same,GI50,SR leukemia,0.517 µM
same,TGI,SR leukemia,> 25 µM
same,GI50,K-562 leukemia,0.823 µM
same,TGI,K-562 leukemia,> 25 µM
same,GI50,UO-31 renal,1.72 µM
same,TGI,UO-31 renal,5.16 µM
same,GI50,SK-OV-3 ovarian,9.81 µM
same,TGI,SK-OV-3 ovarian,> 25 µM
same,GI50,HL-60(TB) leukemia,1.6 µM
same,TGI,HL-60(TB) leukemia,12.4 µM
same,GI50,HOP-92 NSCLC,4.51 µM
same,TGI,HOP-92 NSCLC,13 µM
same,GI50,MOLT-4 leukemia,2.32 µM
same,TGI,MOLT-4 leukemia,18.1 µM
same,GI50,786-0 renal,1.37 µM
same,TGI,786-0 renal,7.09 µM
same,GI50,CAKI-1 renal,3.14 µM
same,TGI,CAKI-1 renal,> 25 µM
same,GI50,HCT-15 colon,1.29 µM
same,TGI,HCT-15 colon,9.26 µM
same,GI50,IGROV1 ovarian,2.93 µM
same,TGI,IGROV1 ovarian,16.6 µM
same,GI50,CCRF-CEM leukemia,2 µM
same,TGI,CCRF-CEM leukemia,> 25 µM
same,GI50,SF-295 CNS,4.55 µM
same,TGI,SF-295 CNS,19.1 µM
same,GI50,BT-549 breast,1.32 µM
same,TGI,BT-549 breast,6.01 µM
same,GI50,UACC-257 melanoma,6.99 µM
same,TGI,UACC-257 melanoma,21.6 µM
same,GI50,OVCAR-3 ovarian,0.962 µM
same,TGI,OVCAR-3 ovarian,3.67 µM
CC(C)[Si](OC1=C(c2ccccc2)C(NC(=O)/C=C/c2ccc([N+](=O)[O-])cc2)CCC1)(C(C)C)C(C)C (centres undefined),TGI,M14 melanoma,> 100 µM
same,TGI,DU-145 prostate,> 100 µM
same,TGI,COLO 205 colon,> 100 µM
same,TGI,MALME-3M melanoma,> 100 µM
same,TGI,HCT-116 colon,> 100 µM
same,TGI,NCI-H522 lung,> 100 µM
same,TGI,SF-539 CNS,> 100 µM
same,TGI,MDA-MB-231 breast,> 100 µM
same,TGI,SK-MEL-2 melanoma,> 100 µM
same,TGI,TK-10 renal,> 100 µM
same,TGI,A549 NSCLC,> 100 µM
same,TGI,MCF7 breast,> 100 µM
same,TGI,HS 578T breast,> 100 µM
same,TGI,A498 renal,> 100 µM
same,TGI,NCI/ADR-RES ovarian,> 100 µM
same,TGI,SF-268 CNS,> 100 µM
same,TGI,PC-3 prostate,> 100 µM
same,TGI,T-47D breast,> 100 µM
same,TGI,MDA-MB-435,> 100 µM
same,TGI,SK-MEL-5 melanoma,> 100 µM
same,TGI,HT29 colon,> 100 µM
same,TGI,UACC-62 melanoma,> 100 µM
same,TGI,OVCAR-5 ovarian,> 100 µM
same,TGI,SW-620 colon,> 100 µM
same,TGI,HCC-2998 colon,> 100 µM
same,TGI,NCI-H460 lung,> 100 µM
same,TGI,RPMI-8226 leukemia,> 100 µM
same,TGI,NCI-H23 lung,> 100 µM
same,TGI,LOX IMVI melanoma,> 100 µM
same,TGI,KM12 colon,> 100 µM
same,TGI,NCI-H226 lung,> 100 µM
same,TGI,HOP-62 NSCLC,> 100 µM
same,TGI,SNB-75 CNS,> 100 µM
same,TGI,SNB-19 CNS,> 100 µM
same,TGI,U251 CNS,> 100 µM
same,TGI,OVCAR-8 ovarian,> 100 µM
same,TGI,RXF 393 renal,> 100 µM
same,TGI,EKVX NSCLC,> 100 µM
same,TGI,SR leukemia,> 100 µM
same,TGI,K-562 leukemia,> 100 µM
same,TGI,UO-31 renal,> 100 µM
same,TGI,SK-OV-3 ovarian,> 100 µM
same,TGI,HL-60(TB) leukemia,> 100 µM
same,TGI,HOP-92 NSCLC,> 100 µM
same,TGI,MOLT-4 leukemia,> 100 µM
same,TGI,786-0 renal,> 100 µM
same,TGI,HCT-15 colon,> 100 µM
same,TGI,IGROV1 ovarian,> 100 µM
same,TGI,CCRF-CEM leukemia,> 100 µM
same,TGI,SF-295 CNS,> 100 µM
same,TGI,BT-549 breast,> 100 µM
same,TGI,UACC-257 melanoma,> 100 µM
same,TGI,OVCAR-3 ovarian,> 100 µM
